Assay [1] concerns Mycoplasmoides pneumoniae. The assay is described as follows: Antimicrobial activity against Mycoplasma pneumoniae ATCC 15531 by broth microdilution method.
Assay [2] has as its system Mycoplasmoides pneumoniae. The experiment in a line: Antimicrobial activity against macrolide-resistant Mycoplasma pneumoniae clinical isolates obtained from bronchial aspirations expressing 23S rRNA A2063G mutant gene and P1 RFLP type I gene by broth microdilution method. It is filed as functional.

Values after ≈ are worked out from the molar mass of the structure shown. Where only a bound is given, the exact number is not on record here.

The MIC is the lowest concentration that inhibits growth of the organism. A high value points to a less susceptible organism. In assay [1], `O=C(O)c1cn(C2CC2)c2cc(N3CCNCC3)c(F)cc2c1=O` [CIPROFLOXACIN] had an MIC of 0.25 µg/mL (≈ 0.754 µM).
In general, MIC50 refers to the lowest concentration that inhibits either 50% of growth or 50% of the strains tested, depending on the study. Lower therefore signals higher susceptibility. The term MIC90 denotes an inhibitory concentration at the 90% level, which refers to growth in some studies and to a panel of isolates in others. A low value points to greater potency. In turn, `CC[C@H]1OC(=O)[C@H](C)[C@@H](O[C@H]2C[C@@](C)(OC)[C@@H](O)[C@H](C)O2)[C@H](C)[C@@H](O[C@@H]2O[C@H](C)C[C@H](N(C)C)[C@H]2O)[C@](C)(OC)C[C@@H](C)C(=O)[C@H](C)[C@@H](O)[C@]1(C)O` [CLARITHROMYCIN] had an MIC in assay [1] of at most 0.007 µg/mL. Moreover, in assay [2], the MIC was at most 0.007 µg/mL, the MIC50 came to 128 µg/mL (≈ 171 µM) and the MIC90 was above 128 µg/mL.
With `CN(C)c1ccc(O)c2c1C[C@H]1C[C@H]3[C@H](N(C)C)C(O)=C(C(N)=O)C(=O)[C@@]3(O)C(O)=C1C2=O` [MINOCYCLINE], the lowest concentration to inhibit growth in assay [1] (MIC) was 0.06 µg/mL (≈ 0.131 µM). In assay [2], this compound had a minimal inhibitory concentration (MIC) of at most 0.007 µg/mL, an MIC50 of 0.06 µg/mL (≈ 0.131 µM) and an MIC90 of 0.125 µg/mL (≈ 0.273 µM).
As for `C[C@H]1COc2c(N3CCN(C)CC3)c(F)cc3c(=O)c(C(=O)O)cn1c23.C[C@H]1COc2c(N3CCN(C)CC3)c(F)cc3c(=O)c(C(=O)O)cn1c23.O` [LEVOFLOXACIN], inhibition of growth in assay [1] (MIC) required 0.25 µg/mL. In assay [2], this compound gave an MIC of 0.015 µg/mL, an MIC50 of 0.25 µg/mL and an MIC90 of 0.5 µg/mL.
`COc1c(N2C[C@@H]3CCCN[C@@H]3C2)c(F)cc2c(=O)c(C(=O)O)cn(C3CC3)c12` [MOXIFLOXACIN]: the MIC in assay [1] is 0.06 µg/mL (≈ 0.149 µM).
In assay [1], `CN(C)[C@@H]1C(O)=C(C(N)=O)C(=O)[C@@]2(O)C(O)=C3C(=O)c4c(O)cccc4[C@@](C)(O)[C@H]3C[C@@H]12` [TETRACYCLINE] came in with an MIC of 0.06 µg/mL (≈ 0.135 µM). In assay [2], this compound came in with a minimum inhibitory concentration (MIC) of 0.015 µg/mL (≈ 0.0338 µM), an MIC50 of 0.06 µg/mL (≈ 0.135 µM) and an MIC90 of 0.125 µg/mL (≈ 0.281 µM).
Compound `CC[C@H]1OC(=O)[C@H](C)[C@@H](O[C@H]2C[C@@](C)(OC)[C@@H](O)[C@H](C)O2)[C@H](C)[C@@H](O[C@@H]2O[C@H](C)C[C@H](N(C)C)[C@H]2O)[C@](C)(O)C[C@@H](C)CN(C)[C@H](C)[C@@H](O)[C@]1(C)O` [AZITHROMYCIN] showed an MIC in assay [1] of at most 0.007 µg/mL. Also, in assay [2], the MIC was at most 0.007 µg/mL, the MIC50 stood at 16 µg/mL (≈ 21.4 µM) and the MIC90 was 64 µg/mL (≈ 85.4 µM).
In assay [1], `C[C@H]1c2cccc(O)c2C(=O)C2=C(O)[C@]3(O)C(=O)C(C(N)=O)=C(O)[C@@H](N(C)C)[C@@H]3[C@@H](O)[C@@H]21.O` [DOXYCYCLINE] displayed an MIC of 0.03 µg/mL. In assay [2], this compound returned an MIC of at most 0.007 µg/mL, an MIC50 of 0.06 µg/mL and an MIC90 of 0.125 µg/mL.
In assay [1], `CC[C@H]1OC(=O)[C@H](C)[C@@H](O[C@H]2C[C@@](C)(OC)[C@@H](O)[C@H](C)O2)[C@H](C)[C@@H](O[C@@H]2O[C@H](C)C[C@H](N(C)C)[C@H]2O)[C@](C)(O)C[C@@H](C)C(=O)[C@H](C)[C@@H](O)[C@]1(C)O` [ERYTHROMYCIN] came in with an MIC of at most 0.007 µg/mL. In assay [2], this compound displayed an MIC of at most 0.007 µg/mL, an MIC50 above 128 µg/mL and an MIC90 above 128 µg/mL.
Take `CO[C@@H]1[C@@H](O[C@@H]2O[C@H](C)[C@@H](O[C@H]3C[C@@](C)(O)[C@@H](OC(=O)CC(C)C)[C@H](C)O3)[C@H](N(C)C)[C@H]2O)[C@@H](CC=O)C[C@@H](C)[C@@H](O)/C=C/C=C/C[C@@H](C)OC(=O)C[C@H]1OC(C)=O` [JOSAMYCIN]: the MIC in assay [1] was at most 0.007 µg/mL. Also, in assay [2], the MIC was at most 0.007 µg/mL, the MIC50 came out at 2 µg/mL (≈ 2.42 µM) and the MIC90 is 4 µg/mL (≈ 4.83 µM).

The values above are taken from ChEMBL document CHEMBL1649430, “Antimicrobial susceptibility of Mycoplasma pneumoniae isolates and molecular analysis of macrolide-resistant strains from Shanghai, China” (2009).
